Data: patent US20230111910A1, “PD-1/PD-L1 INHIBITOR, PREPARATION METHOD THEREFOR, AND USE THEREOF” (SHANGHAI SYNERGY PHARMACEUTICAL SCIENCES CO., LTD., priority 2020, published 2023)
Counter-ions that a name gives are not always drawn. Like-named read-outs stand apart in the source and are kept apart here.

Columns and labels:
[1] = test system: mouse colon cancer MC38-hPD-L1; assay: In vivo efficacy in mice, MC38-hPD-L1 subcutaneous tumor model; conditions: 50 mg/kg i.g., twice a day, MC38-hPD-L1 in C57BL/6 mice
Source text: Under sterile conditions, mouse colon cancer MC38-hPD-L1 in logarithmic growth phase was digested into single cells and then transplanted into the right back of C57BL/6 mice subcutaneously. Each mouse was inoculated with 1×10^6 cells in a volume of […] (μL). After inoculation, when the tumor grows to 100 cubic millimeters (mm^3), the mice were randomly divided into 9 groups, with 8 mice in each group, for drug efficacy experiments. The positive control was human programmed death receptor ligand (PD-L1) antibody. The negative control group was given the same amount of vehicle.
C57BL/6 mice, SPF grade, 6-8 weeks old, female, purchased from Beijing Vital River Laboratory Animal Technology Co., Ltd., license number SCXK […] 2017-0011, animal certificate number: 20170011003865.
An appropriate amount of compound was weighted, dissolved in 5% dimethyl sulfoxide (DMSO), subjected to vortex and sonication, added with 0.5% sodium carboxymethyl cellulose (CMC-Na), and sonicated, to prepare a solution of 5 mg per milliliter (mg/mL).

[2] = Acute toxicity test in mice, single dose, 14 days observation; type: in vivo; conditions: both sexes, mouse, in vivo; ICR mice, single administration; read-out: median lethal dose (LD50)
Description: (§1) This experiment aims to test the toxic effects of the compounds in mice.
(§2) ICR mice, SPF grade, 6-8 weeks old, half male and half […], purchased from Sippe-Bk Lab Animal Co., Ltd., Shanghai, license number SCXK (Shanghai) 2018-0006, animal certificate number: 20180006010983.
(§3) ICR mice were administered different doses of compounds at a single time, and were continuously observed for 14 days. The animal death, poisoning reaction, body weight change, diet, appearance, behavior, etc. were recorded. At the end point, the animals were dissected, and the organs were taken for histopathological examination.

ICR mice = assay: as above; type: in vivo; conditions: within 14 days from administration
Description: as §1, §2, §3

[3] = Pharmacokinetic experiment in rats, LC/MS/MS; type: in vivo; conditions: SD rats; for AUC / half-life / bioavailability / Cmax: male, rat, whole blood; for AUC: read-out: Area under the curve (AUC, ng/mL.h); for half-life: read-out: Half life (T1/2, h) (converted); for bioavailability: read-out: Bioavailability (F%); for Cmax: read-out: Blood concentration (Cmax, ng/mL)
Description: Taking SD rats as an example, the drug concentrations in the plasma of rats at different times after i.g. and i.v. administration of compounds of Examples 1, 5, 6, 8, 12, 13, 15, 18, 19, 22, 25, 27 and 29, respectively, were determined by the liquid chromatography-tandem mass spectrometry (LS/MS/MS) method, and the relevant pharmacokinetic parameters were calculated to evaluate the pharmacokinetic properties of example compounds of the present invention in rats.
Healthy adult SD rats, SPF grade, male, purchased from Sippe-Bk Lab Animal Co., Ltd., Shanghai, license number SCXK (Shanghai) 2018-0006, animal certificate number: 20180006006321.
A certain amount of compound was weighed, dissolved in 5% dimethyl sulfoxide (DMSO), subjected to vortex and sonication, added with 0.5% sodium carboxymethyl cellulose (CMC-Na), and sonicated, to prepare a homogeneous solution.
Before administration and 5 min, 15 min, 0.5 h, 1 h, 2 h, 4 h, 6 h, 8 h and 24 h after administration, orbital blood was collected, 0.2 milliliters (mL) of blood being collected each time, and placed in an anticoagulant tube, mixed well, and stored in a −20° C. refrigerator for later use.
The content of the compound in rat whole blood was determined by liquid chromatography-tandem mass spectrometry (LS/MS/MS).
The pharmacokinetic parameters of the compounds after administration were calculated using the non-compartmental model of WinNonLin5.3 software.

[4] = po, p.o. 10 mg/kg vs i.v. 2 mg/kg

Cc1c(NC(=O)c2nc3c(s2)CN(C)CC3)cccc1-c1cncc(-c2nc3cc(CN4CC[C@@H](C(=O)O)C4)cc(Cl)c3o2)c1C [Example 9]
Tumor growth inhibition rate [1]: 78%
LD50 at 14 days [2]: > 1000 mg/kg
body weight and behavior compared with control group (ICR mice): no abnormal body weight or behavior

Cc1c(NC(=O)c2nc3c(n2C)CCN(C)C3)cncc1-c1cccc(-c2nc3cc(CN4CC[C@@H](C(=O)O)C4)cc(Cl)c3o2)c1C [Example 21]
LD50 at 14 days [2]: > 1000 mg/kg
body weight and behavior compared with control group (ICR mice): no abnormal body weight or behavior

Cc1c(NC(=O)c2nc3c(n2C)CCN(C[C@H](C)O)C3)cncc1-c1cccc(NC(=O)c2nc3c(n2C)CCN(C[C@H](C)O)C3)c1Cl [Example 26, N-(5-(2-chloro-3-(5-((S)-2-hydroxypropyl)-1-methyl-4,5,6,7-tetrahydro-1H-imidazo[4,5-c]pyridine-2-carboxamido)phenyl)-4-methylpyridin-3-yl)-5-((S)-2-hydroxypropyl)-1-methyl-4,5,6,7-tetrahydro-1H-imidazo[4,5-c]pyridine-2-carboxamide]
LD50 at 14 days [2]: > 1000 mg/kg
body weight and behavior compared with control group (ICR mice): no abnormal body weight or behavior

Cc1c(Nc2nccc3cc(CN4CC[C@@H](O)C4)cnc23)cccc1-c1cncc(-c2nc3cc(CN4CC[C@@H](C(=O)O)C4)cc(Cl)c3o2)c1C [Example 11, (R)-1-(((7-chloro-2-(5-(3-((3-((((R)-3-hydroxypyrrolidin-1-yl)methyl)-1,7-naphthyridin-8-yl)amino)-2-methylphenyl)-4-methylpyridin-3-yl)benzo[d]oxazol-5-yl)methyl)pyrrolidine-3-carboxylic acid trifluoroacetate]
Tumor growth inhibition rate [1]: 85%
LD50 at 14 days [2]: > 1000 mg/kg
body weight and behavior compared with control group (ICR mice): no abnormal body weight or behavior

Cc1c(NC(=O)c2nc3c(n2C)CCN(CC(C)O)C3)cccc1-c1nccc(NC(=O)c2nc3c(n2C)CCN(C)C3)c1Cl (centres unmarked) [Example 15]
Area under the curve (AUC, ng/mL.h) ([3]; i.v., 2 mg/kg): 599.36 ng·h/mL
Half life (T1/2, h) ([3]; i.v., 2 mg/kg): 1.76 h
Bioavailability (F%) ([3]; p.o. 10 mg/kg vs i.v. 2 mg/kg): 58%
Area under the curve (AUC, ng/mL.h) ([3]; p.o. (i.g.), 10 mg/kg): 1618.28 ng·h/mL
Blood concentration (Cmax, ng/mL) ([3]; p.o. (i.g.), 10 mg/kg): 377.6 ng/mL
Tumor growth inhibition rate [1]: 86%

Cc1c(NC(=O)c2nc3c(n2C)CCN(C)C3)cccc1-c1cncc(-c2nc3cc(CN4CC[C@@H](C(=O)O)C4)cc(Cl)c3o2)c1C [Example 13]
AUC ([3]; iv, i.v., 2 mg/kg): 630 ng·h/mL
half-life ([3]; iv, i.v., 2 mg/kg): 1.43 h
bioavailability [3, 4]: 54%
AUC ([3]; po, p.o. (i.g.), 10 mg/kg): 1700 ng·h/mL
Cmax ([3]; po, p.o. (i.g.), 10 mg/kg): 431 ng/mL
LD50 at 14 days [2]: > 1000 mg/kg
body weight and behavior compared with control group (ICR mice): no abnormal body weight or behavior

CCN1CCc2c(nc(C(=O)Nc3cncc(-c4cccc(NC(=O)c5nc6c(n5C)CCN(CC)C6)c4Cl)c3C)n2C)C1 [Example 27, N-(2-chloro-3-(5-(5-ethyl-1-methyl-4,5,6,7-tetrahydro-1H-imidazo[4,5-c]pyridine-2-carboxamido)-4-methylpyridin-3-yl)phenyl)-5-ethyl-1-methyl-4,5,6,7-tetrahydro-1H-imidazo[4,5-c]pyridine-2-carboxamide]
AUC ([3]; iv, i.v., 2 mg/kg): 637 ng·h/mL
half-life ([3]; iv, i.v., 2 mg/kg): 2.26 h
bioavailability [3, 4]: 46%
AUC ([3]; po, p.o. (i.g.), 10 mg/kg): 1460 ng·h/mL
Cmax ([3]; po, p.o. (i.g.), 10 mg/kg): 423 ng/mL
Tumor growth inhibition rate [1]: 80%

Cc1c(NC(=O)c2nc3c(n2C)CCN(C[C@H](C)O)C3)cncc1-c1cccc(NC(=O)c2nc3c(n2C)CCN(C(C)C)C3)c1Cl [Example 24, (S)—N-(2-chloro-3-(5-(5-(2-hydroxypropyl)-1-methyl-4,5,6,7-tetrahydro-1H-imidazo[4,5-c]pyridine-2-carboxamido)-4-methylpyridin-3-yl)phenyl)-5-isopropyl-1-methyl-4,5,6,7-tetrahydro-1H-imidazo[4,5-c]pyridine-2-carboxamide]
LD50 at 14 days [2]: > 1000 mg/kg
body weight and behavior compared with control group (ICR mice): no abnormal body weight or behavior

Cc1c(NC(=O)c2nc3c(n2C)CCN(C[C@H](C)O)C3)cncc1-c1cccc(-c2nc3cc(CN4CC[C@@H](C(=O)O)C4)cc(Cl)c3o2)c1C [Example 30, (R)-1-(((7-chloro-2-(3-(5-(5-((S)-2-hydroxypropyl))-1-methyl-4,5,6,7-tetrahydro-1H-imidazo[4,5-c]pyridine-2-carboxamido)-4-methylpyridin-3-yl)-2-methylphenyl)benzo[d]oxazole-5-yl)methyl)pyrrolidine-3-carboxylic acid]
Tumor growth inhibition rate [1]: 79%
LD50 at 14 days [2]: > 1000 mg/kg
body weight and behavior compared with control group (ICR mice): no abnormal body weight or behavior

Cc1c(NC(=O)c2nc3c(n2C)CCNC3)cccc1-c1cncc(-c2nc3cc(CN4CC[C@@H](C(=O)O)C4)cc(Cl)c3o2)c1C [Example 19, (R)-1-(((7-chloro-2-(4-methyl-5-(2-methyl-3-(1-methyl-4,5,6,7-tetrahydro-1H-imidazole)[4,5-c]pyridine-2-carboxamido)phenyl)pyridin-3-yl)benzo[d]oxazol-5-yl)methyl)pyrrolidine-3-carboxylic acid]
AUC ([3]; iv, i.v., 2 mg/kg): 560 ng·h/mL
half-life ([3]; iv, i.v., 2 mg/kg): 2.21 h
bioavailability [3, 4]: 65%
AUC ([3]; po, p.o. (i.g.), 10 mg/kg): 1820 ng·h/mL
Cmax ([3]; po, p.o. (i.g.), 10 mg/kg): 407 ng/mL
LD50 at 14 days [2]: > 1000 mg/kg
body weight and behavior compared with control group (ICR mice): no abnormal body weight or behavior

Cc1c(NC(=O)c2nc3c(s2)CN(C)CC3)cccc1-c1cncc(-c2nc3cc(CN4CC[C@@H](C(=O)O)C4)cc(C#N)c3o2)c1C [Example 25]
AUC ([3]; iv, i.v., 2 mg/kg): 612 ng·h/mL
half-life ([3]; iv, i.v., 2 mg/kg): 2.35 h
bioavailability [3, 4]: 60%
AUC ([3]; po, p.o. (i.g.), 10 mg/kg): 1840 ng·h/mL
Cmax ([3]; po, p.o. (i.g.), 10 mg/kg): 435 ng/mL

Cc1c(NC(=O)c2nc3c(s2)CN(C)CC3)cccc1-c1cccc(-c2nc3cc(CN4CC[C@@H](C(=O)O)C4)cnc3o2)c1C [Example 4, (R)-1-(((2-(2,2′-dimethyl-3′-(5-methyl-4,5,6,7-tetrahydrothiazolo[5,4-c]pyridine-2-carboxamido))-[1,1′-biphenyl]-3-yl)oxazolo[5,4-b]pyridin-6-yl)methyl)pyrrolidine-3-carboxylic acid]
Tumor growth inhibition rate [1]: 82%
LD50 at 14 days [2]: > 1000 mg/kg
body weight and behavior compared with control group (ICR mice): no abnormal body weight or behavior

Cc1c(NC(=O)c2nc3c(n2C)CCN(C[C@H](C)O)C3)cncc1-c1cccc(NC(=O)c2nc3c(n2C)CCN(C2COC2)C3)c1Cl [Example 23, (S)—N-(5-(2-chloro-3-(1-methyl-5-(oxetan-3-yl)-4,5,6,7-tetrahydro-1H-imidazo[4,5-c]pyridine-2-carboxamido)phenyl)-4-methylpyridin-3-yl)-5-(2-hydroxypropyl)-1-methyl-4,5,6,7-tetrahydro-1H-imidazo[4,5-c]pyridine-2-carboxamide]
Tumor growth inhibition rate [1]: 81%

Cc1c(NC(=O)c2nc3c(n2C)CCN(C[C@H](C)O)C3)cccc1-c1cncc(-c2nc3cc(CN4CC[C@@H](C(=O)O)C4)cc(Cl)c3o2)c1C [Example 12]
AUC ([3]; iv, i.v., 2 mg/kg): 586 ng·h/mL
bioavailability [3, 4]: 60%
AUC ([3]; po, p.o. (i.g.), 10 mg/kg): 1760 ng·h/mL
Cmax ([3]; po, p.o. (i.g.), 10 mg/kg): 442 ng/mL

Cc1c(NC(=O)c2nc(CNCCO)cs2)cccc1-c1cccc(NC(=O)c2ccc(CNCCO)cn2)c1Cl [Example 2]
LD50 at 14 days [2]: > 1000 mg/kg
body weight and behavior compared with control group (ICR mice): no abnormal body weight or behavior
